The target in one assay is T1, DC-SIGN on iDCs (Homo sapiens, UniProt Q9NNX6).
T1 construct: endogenous in cells
T1 sequence (Q9NNX6 1-404): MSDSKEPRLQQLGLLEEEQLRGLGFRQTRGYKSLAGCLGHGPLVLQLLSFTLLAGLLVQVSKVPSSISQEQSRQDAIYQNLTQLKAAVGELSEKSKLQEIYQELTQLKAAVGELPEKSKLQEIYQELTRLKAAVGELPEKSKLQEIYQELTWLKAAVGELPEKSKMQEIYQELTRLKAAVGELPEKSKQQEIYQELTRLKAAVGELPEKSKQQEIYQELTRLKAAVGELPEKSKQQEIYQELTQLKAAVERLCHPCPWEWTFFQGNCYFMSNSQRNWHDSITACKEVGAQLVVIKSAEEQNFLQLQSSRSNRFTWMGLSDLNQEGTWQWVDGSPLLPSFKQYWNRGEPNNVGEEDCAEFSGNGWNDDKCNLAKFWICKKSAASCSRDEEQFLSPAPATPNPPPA
Put plainly: gp120 bead adhesion assay, immature DCs. The class given is cell-based. To be noted: for binding of gp120 beads to iDC: cells pre-incubated 30 min, human milk 1/20, vs control. The method, then: (§1) gp120 bead adhesion assay. Beads were prepared as previously described (Geijtenbeek et al, 2000 a), in short, streptavidin was covalently coupled to Carboxylate-modified TransFluoSpheres (488/645 nm, 1.0 μm; molecular probes). The steptavidin-beads were incubated with biotinylated F(ab′)2 fragment goat-anti-human IgG (6 μg/ml; Jackson Immunoresearch) and subsequently incubated overnight with gp120-Fc chimera. Fifty thousand cells, Raji-DC-SIGN cells, immature DCs or Raji-L-SIGN cells, were pre-incubated with human milk or milk compounds, AZN-D1 (Geijtenbeek et al, 2000 a), AZN-D2 (Halary et al, 2002), EGTA or mannan for 30 minutes at RT. The ligand-coated beads (20 beads/cell) were added to the pre-incubated cells and incubated for 30 minutes at 37° C. after which the cells were washed with TSM containing 0.5% BSA. After washing, the cells were resuspended in 100 μl TSM-BSA buffer and the adhesion was measured by flow cytometry (BD Biosciences).
(§2) gp120 bead adhesion assay. Beads were prepared as previously described (Geijtenbeek et al, 2000 a), in short, streptavidin was covalently coupled to Carboxylate-modified TransFluoSpheres (488/645 nm, 1.0 μm; molecular probes). The steptavidin-beads were incubated with biotinylated F(ab′)2 fragment goat-anti-human IgG (6 μg/ml; Jackson Immunoresearch) and subsequently incubated overnight with the gp120-Fc chimera. Fifty thousand cells, Raji-DC-SIGN cells or iDCs were pre-incubated with human milk, AZN-D1 (Geijtenbeek et al, 2000 a), AZN-D2 (Halary et al, 2002), EGTA or mannan for 30 minutes at RT. The ligand-coated beads (20 beads/cell) were added to the pre-incubated cells and incubated for 30 minutes at 37° C. after which the cells were washed with TSM (20 mM Tris, 150 mM NaCl, 1 mM CaCl2, 2 mM MgCl2) containing 0.5% BSA. After washing, the cells were resuspended in 100 μl TSM-BSA buffer and the adhesion was measured by flow cytometry (BD Biosciences).

Another assay has as its target T2, DC-SIGN-Fc (Homo sapiens, UniProt Q9NNX6).
T2 construct: the extracellular portion of DC-SIGN (amino acids 64 to 404)
T2 sequence (Q9NNX6 64-404): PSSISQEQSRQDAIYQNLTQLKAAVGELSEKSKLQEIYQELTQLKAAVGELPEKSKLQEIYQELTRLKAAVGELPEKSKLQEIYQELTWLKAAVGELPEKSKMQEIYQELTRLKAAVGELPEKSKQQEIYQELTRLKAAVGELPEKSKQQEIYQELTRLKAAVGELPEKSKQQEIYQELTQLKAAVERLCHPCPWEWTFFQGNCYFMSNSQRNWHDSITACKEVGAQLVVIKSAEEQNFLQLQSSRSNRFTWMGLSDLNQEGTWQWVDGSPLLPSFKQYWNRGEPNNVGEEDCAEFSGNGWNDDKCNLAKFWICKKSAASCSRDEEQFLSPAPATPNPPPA
Put plainly: DC-SIGN-Fc binding ELISA. The method, then: DC-SIGN-Fc binding ELISA. The DC-SIGN-Fc chimera contained the extracellular portion of DC-SIGN (amino acids 64 to 404) fused at the C-terminus to a human immunoglobulin (Ig) G1 Fc fragment and has been previously described (Geijtenbeek et al, 2002). Human milk or human milk compounds were diluted in 0.2M NaHCO3, coated on ELISA plates (maxisorb plate; Nunc) and incubated overnight at 4° C. or 2 hours at 37° C. This was followed by blocking with TSM containing 1% BSA for 30 minutes at 37° C. before addition of soluble DC-SIGN-Fc (5 μg/ml) for 2 hours at RT, the binding was determined by incubation of a peroxidase labeled anti-IgG1 antibody for 30 minutes at RT. DC-SIGN-Fc binding specificity was determined by pre-incubation of the DC-SIGN-FC with either 50 μg/ml DC-SIGN specific mouse antibody AZN-D1 (Geijtenbeek et al, 2000 a) or 10 mM EGTA. Single-cycle-replication transmission assay. The assay was performed as previously described (Groot et al, 2005). In short mDCs and iDCs were incubated in a 96-well-plate (35−50×10^3 DC/well) with human milk for 30 minutes at 37° C. before addition of the virus (5 ng p24/well), which was incubated for 2 hours at 37° C. The DCs were washed twice with PBS before addition of 50×10^3 LuSIV cells. After 24 hours, LuSIV cells were harvested and resuspended in 50 μl lysis buffer (25 mM Tris-Cl 7.8, 2 mM DTT, 2 mM CDTA, 10% glycerol, 1% Triton X100). The cells were then incubated for 45 minutes at room temperature while shaking, followed by 10 minutes centrifugation at 3200×g. […]
DC-SIGN-Fc binding ELISA. […] This was followed by blocking with TSM containing 1% BSA for 30 minutes at 37° C. before addition of soluble DC-SIGN-Fc (5 μg/ml) for 2 hours at RT, the binding was determined by incubation of a peroxidase labeled anti-IgG1 antibody for 30 minutes at RT. DC-SIGN-Fc binding specificity was determined by pre-incubation of the DC-SIGN-Fc with either 50 μg/ml DC-SIGN specific mouse antibody AZN-D1 (Geijtenbeek et al, 2000 a) or 10 mM EGTA.
(In an ELISA, binding on a coated surface is turned into a signal by an enzyme label.)

Assay [1] concerns the target T3, DC-SIGN on Raji-DC-SIGN cells (Homo sapiens, UniProt Q9NNX6).
T3 construct: expressed in transfected cells; host or cells: Raji cells (Raji-DC-SIGN)
T3 sequence (Q9NNX6 1-404): T1 sequence (Q9NNX6 1-404)
The assay is described as follows: gp120 bead adhesion assay, Raji-DC-SIGN cells. The class given is cell-based. To be noted: for binding of gp120 beads to Raji-DC-SIGN: cells pre-incubated 30 min, human milk 1/20, vs control. As to the method:
as §1, §2

The test system of assay [2] is DC-SIGN mediated transfer of HIV-1 by Raji-DC-SIGN cells to CD4+ T-lymphocytes. The assay is described as follows: DC-SIGN mediated HIV-1 transfer assay (Raji-DC-SIGN transfer culture assay). To be noted: Le^x containing compounds, all at 10 μg/ml. The class given is cell-based. The method, then: DC-SIGN mediated HIV-1 transfer assay. The Raji and Raji-DC-SIGN cells were plated at a concentration of 2×10^4 cells/well in a 96 well format. Dilutions of human milk or human milk compounds were made in PBS containing 10% FCS and spiked with 3.7log TCID50/ml of the appropriate virus before addition to the Raji-DC-SIGN cells. As controls PBS containing 10% FCS was spiked with the same TCID50/ml of the corresponding virus before addition to Raji or Raji-DC-SIGN cells. After incubation the culture was washed with PBS before addition of CD4^+ enriched T-lymphocytes at a concentration of 1×10^5 cells/well with p24 determined on day 7. DC-SIGN specific antibody binding after exposure to human milk. […] The cells were washed and resuspended in 100 μl TSM containing 0.5% bovine serum albumin, (BSA Fraction V, Fatty Acid-Free) (Calbiochem) and the adhesion was measured by flow cytometry (BD Biosciences).
DC-SIGN mediated HIV-1 transfer assay. […] After a two hour incubation the culture was washed with PBS before addition of CD4^+ enriched T-lymphocytes at a concentration of 1×10^5 cells/well with p24 values determined on day 7.

Assay [3] deals with T4, DC-SIGN (Homo sapiens, UniProt Q9NNX6).
T4 sequence (Q9NNX6 1-404): T1 sequence (Q9NNX6 1-404)
Put plainly: gp120 bead adhesion assay, cells not given. The class given is cell-based. To be noted: Le^x containing compounds; data not shown. The method, then:
as §1

Assay [4] addresses T4, DC-SIGN. To be noted: literature; cited from earlier work.
The mark [5] stands for this setting: Example 2, protein fraction from milk S3 (C18 column) and DC-SIGN controls.
[6] abbreviates: major milk proteins at 1/20 dilution of physiological concentration in human milk.

Turning to `O=C(O)CN(CCOCCOCCN(CC(=O)O)CC(=O)O)CC(=O)O` [EGTA, reference compound], the “gp120 binding to iDCs” value at DC-SIGN on iDCs (setting [5]) is “demonstrated inhibition”. The “binding of gp120 beads to iDC” value on DC-SIGN on iDCs is listed as “block binding of gp120 beads to the DC-SIGN expressing cells to the same extent as human milk”. Moreover, the “DC-SIGN-Fc binding to human milk after pre-incubation of DC-SIGN-Fc” value on DC-SIGN-Fc (50 μg/ml AZN-D1 or 10 mM EGTA, p<0.01) is recorded as “completely abrogated binding”. The “binding of gp120 beads to Raji-DC-SIGN” value in assay [1] is given as “block binding of gp120 beads to the DC-SIGN expressing cells to the same extent as human milk”.
As for “Le^x-BSA: Lewis X-BSA, 14 atom spacer (Calbiochem)”, the “DC-SIGN mediated HIV-1 transfer” value in assay [2] is on record as “able to inhibit DC-SIGN mediated HIV-1 transfer”. Moreover, the “interaction between DC-SIGN and gp120” value with DC-SIGN [3] is “none of the tested compounds were able to block the interaction”. In the assay with DC-SIGN-Fc (Le^x-BSA or BSA control coated), the “binding to DC-SIGN-Fc” value is listed as “demonstrates binding to DC-SIGN-Fc”.
For “human lysozyme: major human milk protein (Sigma) [reference compound]”, the “gp120 binding to iDCs” value with DC-SIGN on iDCs (setting [6]) is “None of the tested human milk compounds could inhibit gp120 binding”. In the assay with DC-SIGN-Fc (setting [6]), the “DC-SIGN-Fc binding to coated milk compound” value was “showed no binding”. Further, the “gp120 binding to Raji-DC-SIGN” value in assay [1] (setting [6]) was “None of the tested human milk compounds could inhibit gp120 binding”.
On to “lacto-N-fucopentaose III [LNFP III, reference compound]”, for which, in assay [2], the “DC-SIGN mediated HIV-1 transfer” value is “not able to prevent HIV-1 transfer”. Further, at DC-SIGN [3], the “interaction between DC-SIGN and gp120” value was “none of the tested compounds were able to block the interaction”. Moreover, the “previously shown DC-SIGN binding” value on DC-SIGN [4] is reported as “bind DC-SIGN”.
For the molecule mannan, at DC-SIGN on iDCs (setting [5]), the “gp120 binding to iDCs” value is listed as “demonstrated inhibition”. At DC-SIGN on iDCs, the “binding of gp120 beads to iDC” value is “block binding of gp120 beads to the DC-SIGN expressing cells to the same extent as human milk”. Further, the “binding of gp120 beads to Raji-DC-SIGN” value in assay [1] is “block binding of gp120 beads to the DC-SIGN expressing cells to the same extent as human milk”.

The values are drawn from patent US20090228996A1, “Means and Methods for influencing Interactions Between Dc-Sign and Dc-Sign Ligands” (priority 2006, published 2009).
